The record followed here is US20170152245A1 (National Taiwan University, priority 2015, published 2017).

Each structure is given as a SMILES string. Read-outs that look alike come from different tables or passages of the source.

For data set [1], the system named is human platelet suspension. Put plainly: Collagen-induced platelet aggregation in human platelet suspension. As to conditions: collagen 10 μg/ml; for IC50: Platelet, washed human platelets, read-out: IC50 collagen-induced platelet aggregation in human PS. The format is cell-based. On the procedure:
(§1) Human platelet suspension (PS) was prepared according to the method described previously. Briefly, blood sample, freshly obtained from healthy volunteers who had taken no medications during the preceding 2 weeks, was treated with acid citrate/dextrose (ACD) in a volume ratio of 9:1. After centrifugation at 120 g, 25° C. for 9 min, platelet-rich plasma was transferred into another plastic tube and incubated with heparin (6.4 U/ml) as well as prostaglandin E1 (1 μM). Platelets were spun down by centrifugation at 500 g, 25° C. for 8 min and subsequently washed two times with Tyrode solution (NaH2PO4 0.4 mM; NaCl 136.9 mM; KCl […]; NaHCO3 11.9 mM; CaCl2 2 mM; MgCl2 2.1 mM; glucose 11.1 mM; BSA 3.5 mg/ml; pH 7.35-7.4). The washed platelets were finally suspended in Tyrode's solution and the platelet count was adjusted to 3.75×10^8 platelets/ml. For platelet-rich plasma (PRP) preparation, whole blood was anticoagulated with 1/10 vol of sodium citrate (3.8%, w/v) and centrifuged at 150 g, 25° C. for 9 min.
(§2) Platelet aggregation was measured turbidimetrically with a Lumi-aggregometer (Payton Scientific) at 37° C. under stirring condition (900 rpm). Platelet suspensions were prewarmed to 37° C. for 2 min in a silicone-treated glass cuvette. Nstpbp5185 was added 3 min before the addition of platelet-aggregation inducers. The extent of platelet aggregation was determined by recording the increase of light transmission relative to that of control (maximal aggregation, as 100%) for 6 min after the addition of inducer. The final volume and platelet count for measuring platelet aggregation were 500 μl and 3×10^8/ml, respectively.

The test system of data set [2] is human platelet suspension. Put plainly: Arachidonic acid-induced platelet aggregation in human platelet suspension. The class given is cell-based. To be noted: AA 200 μM. On the procedure: as §1, §2
For data set [3], the system named is human platelet suspension. Put plainly: U46619-induced platelet aggregation in human platelet suspension. The format is cell-based. To be noted: for IC50: Homo sapiens; for shift of the concentration-response curve of U46619: nstpbp5185 2 and 3 μM with indomethacin, Ctkf6f2 1 μM; for U46619 needed to induce the full aggregation: platelets pretreated with 1 μM compound.

In data set [4] the test system is human platelet-rich plasma. Put plainly: Collagen-induced platelet aggregation in human platelet-rich plasma. The format is cell-based. On the procedure: as §1, §2
Data set [5] has as its system human platelet suspension. Put plainly: Thromboxane B2 formation in human platelet suspension. The class given is cell-based. On the procedure: Human platelet suspension (3.75×10^8/ml) was preincubated in the presence or absence of nstpbp5185 or aspirin for 3 min before the addition of collagen or AA. Six minutes after the addition of agonist, […] indomethacin and 2 mM EDTA were added to the reaction suspension. After centrifugation in an Eppendorf centrifuge at 14,000 g for 2 min, the thromboxane B2 (TXB2), the stable metabolite of TXA2, levels of the supernatant were measured using a competitive enzyme-immuno assay (EIA) kit according to the instructions of the manufacturer.

The subject of data set [6] is mesenteric venules of mice. Put plainly: Fluorescein sodium-induced platelet thrombus formation in mesenteric venules of mice. As to conditions: for average time to occlusion (TTO): 10 μg/g i.v., mice; for occlusion time: i.v., 5 min after administration. The format is in vivo. The procedure: A modification of the method was used. Male ICR mice (12-14 g) were anesthetized with sodium pentobarbital (50 mg/kg, i.p.). […] Five min later, various doses of nstpbp5185 (2 and 4 μg/g), aspirin (150 and 250 μg/g), or DMSO (control) were administered by i.v. through other lateral tail vein. The injected volume of the nstpbp5185, aspirin, or DMSO (control) was smaller than 10 μl. A segment of the small intestine with its mesentery attached was exteriorized through a midline incision on the abdominal wall and placed onto a transparent plastic plate for microscopic observation. Frequent rinsing of the mesentery with warm isotonic saline kept at 37° C. was performed to prevent the mesentery from drying out. Microvessels in the mesentery were observed under transillumination from a halogen lamp. Venules with diameters of 30-40 μm were selected to be irradiated to produce a microthrombus. In the epi-illumination system, light from a 100-W mercury lamp was filtered through a filter (B-2A, Nikon, Tokyo, Japan) with a dichromic mirror (DM 510, Nikon). The filtered light eliminated wavelengths below 520 nm irradiated a microvessel through an objective lens (20×). The area of irradiation was about 100 μm in diameter on the focal plane. Ten minutes after administration of the dye, the irradiation by filtered light and a timer were simultaneously started, and thrombus formation was observed on a TV-monitor. Occlusion time was recorded as the time interval for inducing thrombus formation leading to cessation of blood flow.
After giving 50 μg/g fluorescein sodium, the irradiation of mesenteric venules induced thrombus formation which is consist of activated platelets and fibrin clots. […] In the vehicle-treated group, the average TTO was approximately 143.71±4.99 sec (n=17). The group pre-treated with compound 5185 (10 μg/g), the average TTO value was 208.67±6.99 sec (n=12).

The next data set deals with mice. As to the kind of experiment: Pulmonary thromboembolism caused by collagen/epinephrine. The format is in vivo. To be noted: for survival rate after 1 day: n=4. The procedure: (A) Mice were i.v. injected with vehicle (DMSO as control), nstpbp5185 (10 μg/g) or Ctkf6f2 (10 μg/g), then injected with collagen/epinephrine to induce pulmonary embolism model. After the onset of respiratory arrest, lungs were excised. […] Histologic analysis was performed on H&E-stained sections of lung from each mouse. […] (B) Survival rate of mice injected with DMSO as control, nstpbp5185 (10 μg/g) or Ctkf6f2 (10 μg/g) after induction of pulmonary thromboembolism in 30 min, 1 hr and 24 hr (n=4). (C) Representative images of lung isolated after the onset of respiratory arrest, but while the heart was still beating, 0.5 ml of Evans blue solution was injected into the heart. Lungs were excised, and photographed.
Male mice (ICR, 25±3 g) received collagen (0.6 μg/g) plus epinephrine (0.2 μg/g) by tail vein injection. While the respiration is very weak and the heart was still beating, 0.5 mL of Evans blue solution (1% in saline; Sigma) was injected into the heart. Lungs were excised, photographed and fixed with paraldehyde, embedded into paraffin, and sectioned. Histological analysis was performed on hematoxylin and eosin-stained (H&E) sections of lung from each mouse. Nstpbp5185 (10 μg/g) or DMSO vehicle was intravenously given prior to collagen/epinephrine. Mortality after challenge was calculated as percentage of death after injection of collagen/epinephrine, the end time will be […].

Data set [7] relates to receptor tyrosine kinases. Put plainly: Receptor tyrosine kinases safety profile. The class given is biochemical. On the set-up: dose or concentration left out as unconfirmed. The procedure:
These kinases or enzymatic assays were performed by MDS according to the standardized methods

[8] abbreviates: Platelet, U46619 1 μM, washed human platelets, read-out: IC50 U46619-induced aggregation.
The mark [9] stands for this setting: Homo sapiens, Platelet, collagen 10 μg/ml, read-out: inhibition of TXB2 compared to the control.

Turning to `Cc1ccc(-c2nc3ccc(F)cc3n2Cc2cccc(F)c2)o1` [Ctkf6f2, 6-fluoro-1-(3-fluorobenzyl)-2-(5-methyl-2-furyl)benzimidazole], the 50% inhibitory concentration (IC50) (in general, the concentration needed to halve the response being measured) in data set [1] worked out at 3.4 ± 0.62 µM; in data set [2], 3.2 ± 0.99 µM; in data set [3] (setting [8]) it was 1.17 ± 0.23 µM; in data set [4] (Homo sapiens, collagen 5 μg/ml, read-out: IC50 collagen-induced aggregation in platelet-rich plasma) it was 31.3 ± 7.68 µM. Moreover, the inhibition (usually the relative decrease from the control value, in per cent) at 1 µM turned out to be 50% in data set [3] (Platelet, human washed platelets, 1 μM compound, U46619 1 μM) and 43.9% in data set [5] (setting [9]). Also, in data set [3], the “shift of the concentration-response curve of U46619” value was “right-shift”. Besides, the “U46619 needed to induce the full aggregation” value in data set [3] is given as “around 2 μM”. For the same compound, the inhibition at 0.3 µM in data set [5] (Homo sapiens, Platelet, collagen 10 μg/ml, 0.3 μM, read-out: inhibition of TXB2 compared to the control) was 33%. In addition, the inhibition at 3 µM in data set [5] (Homo sapiens, Platelet, collagen 10 μg/ml, 3 μM, read-out: inhibition of TXB2 compared to the control) was determined as 64.7%. Also, the inhibition at 10 µM in data set [5] (Homo sapiens, Platelet, collagen 10 μg/ml, 10 μM, read-out: inhibition of TXB2 compared to the control) is 73.5%. Also, in data set [6], the “average time to occlusion (TTO)” value turned out to be 267.93 ± 12.64 s. The “emboli in lung sections compared with 5185” value in the data set on mice (10 μg/g i.v.) is on record as “smaller emboli”. Moreover, the “survival rate after 1 day” value in the data set on mice (10 μg/g i.v.) is recorded as 100%. In data set [7], the “effects on receptor tyrosine kinases” value is “little effects”.
In the case of `Cc1ccc(-c2nc3ccccc3n2Cc2ccccc2)o1` [Example 6, 1-Benzyl-2-(5-methyl-2-furyl)benzimidazole], the half-maximal inhibitory concentration (IC50) in data set [1] was about 1.3 µM; in data set [2] it was 3.9 ± 0.2 µM; in data set [3] (setting [8]) it was about 2.5 µM; in data set [3] (Platelet, U46619-induced aggregation, platelet suspension, read-out: P.S(U46619) IC50), 2.45 µM; in data set [4] (human PRP, data not shown, read-out: IC50 collagen-induced platelet aggregation in human PRP) it was 64.2 ± 2.5 µM. Further, the “% inhibition collagen” value in data set [1] (human platelet suspension, preliminary, compound concentration not given) is 71.2 (n = 2) %. In addition, the “inhibition of aggregation induced by U46619” value in data set [3] (human washed platelets, 1 μM compound, U46619 1 μM) was “could not effectively inhibit”. Moreover, in data set [3], the “shift of the concentration-response curve of U46619” value is given as “right-shift”. Besides, the “U46619 needed to induce the full aggregation” value in data set [3] was found to be 0.5 µM. For the same compound, in data set [5] (setting [9]), the inhibition at 1 µM stood at 52.6%. Moreover, in data set [5] (arachidonic acid 200 μM, 0.7, 2 and 6 μM), the “TXB2 generation of AA-stimulated platelets” value was “concentration-dependently inhibited”. Moreover, the “TXB2 generation of collagen-stimulated platelets” value in data set [5] (collagen 10 μg/ml, 0.7, 2 and 6 μM) is reported as “concentration-dependently inhibited”. In addition, the “occlusion time within 70 min after administration” value in data set [6] (4 μg g^−1 i.v.) turned out to be 157.5 ± 12.5 s. Moreover, the “time until occlusion time returned to the control value” in data set [6] (4 μg g^−1 i.v.) is given as at most 90 min. For the same compound, the “average time to occlusion (TTO)” value in data set [6] is 208.67 ± 6.99 s. Also, the occlusion time in data set [6] (4 μg/g) was 170.9 ± 28.0 s; in data set [6] (first dose of 'respectively' (2 μg/g)), 110.5 ± 18.0 s. Also, the “survival rate after 1 day” value in the data set on mice (10 μg/g i.v.) is on record as 100%. The “mortality after collagen/epinephrine within 1 hr” value in the data set with mice (5 and 10 μg g^−1, intravenous injection) is “completely protected mice from death”. In addition, the “microemboli in lung sections” value with mice (nstpbp5185-treated mice vs control) was “few microemboli”. Further, in data set [7], the “effects on receptor tyrosine kinases” value is “little effects”.
